# According to paper PMC6066355, “Probing the binding site of novel selective positive allosteric modulators at the M1 muscarinic acetylcholine receptor” (Biochemical Pharmacology, 2018):
# Residue numbers refer to the chain shown, from its start. Where two headings read alike, the source gives them in different places.
# Key:
# W400^7.35A M1 mAChR = molecular target: T1, W400^7.35A M1 mAChR (Homo sapiens, UniProt P11229, W400A); test: Whole cell [3H]NMS binding inhibition/interaction assay (ACh ± PAM), FlpIn CHO cells; conditions: affinity and cooperativity could not be estimated
# T1 construct: expressed in transfected cells
# T1 sequence (P11229 1-460 W400A): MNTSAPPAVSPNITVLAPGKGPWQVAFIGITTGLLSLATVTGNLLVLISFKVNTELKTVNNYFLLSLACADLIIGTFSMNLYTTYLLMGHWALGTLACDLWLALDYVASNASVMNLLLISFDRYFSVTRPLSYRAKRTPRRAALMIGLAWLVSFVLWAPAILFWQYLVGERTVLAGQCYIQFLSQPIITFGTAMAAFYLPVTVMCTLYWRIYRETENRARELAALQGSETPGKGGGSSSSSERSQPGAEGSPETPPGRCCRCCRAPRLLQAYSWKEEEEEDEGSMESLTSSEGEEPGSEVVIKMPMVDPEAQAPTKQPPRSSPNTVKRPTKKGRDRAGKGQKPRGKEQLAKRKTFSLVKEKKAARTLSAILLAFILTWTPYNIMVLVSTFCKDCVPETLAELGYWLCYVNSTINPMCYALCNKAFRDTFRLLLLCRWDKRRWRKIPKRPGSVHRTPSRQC
# Protocol: (§1) Saturation binding assays were performed to estimate the expression levels and equilibrium dissociation constant of the radioligand (KD). FlpIn CHO cells stably expressing the WT or mutant c-myc hM1 mAChRs were plated at the density of 25,000 per well of 96-well white clear bottom Isoplates (PerkinElmer Life Sciences, Boston, MA), and grown overnight at 37 °C. […] Atropine at the final concentration of 100 µM was used to determine non-specific binding. The assays were terminated by rapid removal of the radioligand, and two washes with 100 µl/well ice-cold 0.9% NaCl buffer.
# (§2) All data were analysed using GraphPad Prism 7 (San Diego, CA). […] Binding interaction studies between orthosteric agonists and allosteric modulators were fitted to the following allosteric ternary complex model (Eq. (1)):(1) Y=BmaxD/D+KDKB/α^′B+KB1+I/KI+B/KB+αIB/KIKB where Bmax is the total number of receptors, [D], [B] and [I] denote the concentrations of radioligand, allosteric ligand, and orthosteric ligand, respectively, and KD, KB and KI represent their respective equilibrium dissociation constants. α′ and α are the cooperativity factors between the allosteric ligand and radioligand or orthosteric ligand, respectively.
# Y82^2.61A M1 mAChR = molecular target: T2, Y82^2.61A M1 mAChR (Homo sapiens, UniProt P11229, Y82A); test: as above
# T2 construct: expressed in transfected cells
# T2 sequence (P11229 1-460 Y82A): T1 sequence (P11229 1-460 W400A) with Y82A, A400W
# Protocol: as §1, §2
SMILES,Modulatory effect on ACh inhibition of [3H]NMS binding (W400^7.35A M1 mAChR),Kb (Y82^2.61A M1 mAChR) [nM],Logα ACh (logarithm of binding cooperativity between ACh and modulator) (Y82^2.61A M1 mAChR; Y82^2.61A),Logα NMS (logarithm of binding cooperativity between [3H]NMS and modulator) (Y82^2.61A M1 mAChR; Y82^2.61A),"α ACh (binding cooperativity with ACh, antilog in brackets) (Y82^2.61A M1 mAChR; Y82^2.61A)","α NMS (binding cooperativity with [3H]NMS, antilog in brackets) (Y82^2.61A M1 mAChR; Y82^2.61A)","Kb (Y82^2.61A M1 mAChR; Y82^2.61A, allosteric ternary complex model, 0.6 nM [3H]NMS, read-out: pKB (negative logarithm of the allosteric modulator equilibrium dissociation constant) (converted)) [nM]"
"Cn1cc(-c2ccc(COc3ccccc3-c3cc(=O)n(C4CCCCC4O)cn3)cc2)cn1 (stereo not drawn) [MIPS1780, 3-(2-hydroxycyclohexyl)-6-(2-((4-(1-methyl-1H-pyrazol-4-yl)-benzyl)oxy)phenyl)pyrimidin-4(3H)-one]",completely abolished,10000,1.66 ± 0.19,−0.16 ± 0.06,45.7,0.69,
"Cn1cc(-c2ccc(Cn3cc(C(=O)N[C@H]4CCCC[C@@H]4O)c4c(F)cc(F)cc43)cn2)cn1 [VU6004256, 4,6-difluoro-N-(1S,2S)-2-hydroxycyclohexyl-1-((6-(1-methyl-1H-pyrazol-4-yl)pyridine-3-yl)methyl)-1H-indole-3-carboxamide]",completely abolished,2240,1.08 ± 0.13,−0.09 ± 0.03,11.2,0.76,
"Cc1cnc(C(=O)N[C@H]2CCOC[C@@H]2O)cc1Cc1ccc(-c2cscn2)cc1 [PF-06767832, N-((3R,4S)-3-hydroxytetrahydro-2H-pyran-4-yl)-5-methyl-4-(4-(thiazol-4-yl)benzyl)pyridine-2-carboxamide]",completely abolished,,1.53 ± 0.11,−0.16 ± 0.02,30.9,0.62,2450
